# Columns and labels:
# [1] = test system: p-Btk(Y223) in CD14+ monocytes; assay: Phosphoflow cytometry of p-Btk(Y223) in CD14+ monocyte gate of healthy PBMCs; format: cell-based; conditions: SDF-1 stimulation, FIG. 2
# Description: (§1) Cells were then analyzed by phosphoflow cytometry and p-Btk(Y223) was measured in the CD20+ B cell gate and the CD14^+ monocyte gate separately. In B cells, BTK phosphorylation in anti-IgM stimulated B cells is increased with the addition of SDF-1 (CXCL-12) in the “No drug” condition. […] In monocytes, BTK phosphorylation is only observed when SDF-1 is present.
# [2] = test system: RANK MDA-MB231; assay: RANK MDA-MB231 mouse experiment (bone metastases, bioluminescence imaging); format: in vivo; conditions: ~10 and ~50 mg/kg/day PO, 2 weeks of treatment, FIG. 9
# Description: FIG. 9 illustrates the results of a RANK MDA-MB231 mouse experiment. […] The primary endpoint was bioluminescence imaging (weekly). The secondary endpoints were serum CTx (bone resorption) and serum P1NP (bone formation).
# [3] = test system: p-Btk(Y223) in CD20+ B cells; assay: Phosphoflow cytometry of p-Btk(Y223) in CD20+ B cell gate of healthy PBMCs; format: cell-based; conditions: 2 hours incubation, anti-IgM or anti-IgM+SDF-1 for 5 minutes, low nM concentrations, FIG. 1
# Description: as §1
# [4] = test system: CXCR4 surface expression in B-CLL cells; assay: CXCR4 surface expression in B-CLL cells of CLL patients after administration; format: in vivo, human; conditions: CLL patients with 17p deletion, blood 4, 24, 48 hours after day 3 dose
# Description: Drug was given for 3 days. Blood was drawn predose, and then 4, 24, and 48 hours after the day 3 dose.
structure (smiles),measurement,setting,value
"CC#CC(=O)N1CCC[C@H]1c1nc(-c2ccc(C(=O)Nc3ccccn3)cc2)c2c(N)nccn12 [Formula (II), (S)-4-(8-amino-3-(1-(but-2-ynoyl)pyrrolidin-2-yl)imidazo[1,5-a]pyrazin-1-yl)-N-(pyridin-2-yl)benzamide]",SDF-1/CXCR4 signaling (SDF-1 induced p-Btk) in monocytes,[1],inhibits
same,Bone metastases (bioluminescence imaging),[2],dose-response reduction
same,"BTK phosphorylation, p-Btk(Y223), in B cells",[3],inhibited
same,CXCR4 surface expression in B-CLL cells compared to predose,"[4]; 100 mg BID for 3 days, FIG. 3",reduced
same,CXCR4 surface expression in B-CLL cells compared to predose,"[4]; 200 mg QD for 3 days, FIG. 4",reduced
